Legend:
Experiment in all cases: Enzymatic activity of PI3K isoforms, TR-FRET assay (PIP3 formation)
Type in all cases: biochemical
PI3Kγ = PI3Kγ (Homo sapiens (Human), UniProt P48736)
Procedure, shortened: (§1)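 IC50 (nM) reflects inhibition of PIP3 formation by purified recombinant heterodimeric PI3K, measured as loss of TR-FRET signal. The read-out comes from competition between enzyme-made PIP3 and labelled PIP3 for binding to the GRP-1 pleckstrin homology domain.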

PI3Kβ = PI3Kβ (Homo sapiens (Human), UniProt P42338)
Procedure, shortened: as §1

PI3Kδ = PI3Kδ (Homo sapiens (Human), UniProt O00329); conditions: bound given in nM
PI3Kδ, sequence (O00329 whole entry): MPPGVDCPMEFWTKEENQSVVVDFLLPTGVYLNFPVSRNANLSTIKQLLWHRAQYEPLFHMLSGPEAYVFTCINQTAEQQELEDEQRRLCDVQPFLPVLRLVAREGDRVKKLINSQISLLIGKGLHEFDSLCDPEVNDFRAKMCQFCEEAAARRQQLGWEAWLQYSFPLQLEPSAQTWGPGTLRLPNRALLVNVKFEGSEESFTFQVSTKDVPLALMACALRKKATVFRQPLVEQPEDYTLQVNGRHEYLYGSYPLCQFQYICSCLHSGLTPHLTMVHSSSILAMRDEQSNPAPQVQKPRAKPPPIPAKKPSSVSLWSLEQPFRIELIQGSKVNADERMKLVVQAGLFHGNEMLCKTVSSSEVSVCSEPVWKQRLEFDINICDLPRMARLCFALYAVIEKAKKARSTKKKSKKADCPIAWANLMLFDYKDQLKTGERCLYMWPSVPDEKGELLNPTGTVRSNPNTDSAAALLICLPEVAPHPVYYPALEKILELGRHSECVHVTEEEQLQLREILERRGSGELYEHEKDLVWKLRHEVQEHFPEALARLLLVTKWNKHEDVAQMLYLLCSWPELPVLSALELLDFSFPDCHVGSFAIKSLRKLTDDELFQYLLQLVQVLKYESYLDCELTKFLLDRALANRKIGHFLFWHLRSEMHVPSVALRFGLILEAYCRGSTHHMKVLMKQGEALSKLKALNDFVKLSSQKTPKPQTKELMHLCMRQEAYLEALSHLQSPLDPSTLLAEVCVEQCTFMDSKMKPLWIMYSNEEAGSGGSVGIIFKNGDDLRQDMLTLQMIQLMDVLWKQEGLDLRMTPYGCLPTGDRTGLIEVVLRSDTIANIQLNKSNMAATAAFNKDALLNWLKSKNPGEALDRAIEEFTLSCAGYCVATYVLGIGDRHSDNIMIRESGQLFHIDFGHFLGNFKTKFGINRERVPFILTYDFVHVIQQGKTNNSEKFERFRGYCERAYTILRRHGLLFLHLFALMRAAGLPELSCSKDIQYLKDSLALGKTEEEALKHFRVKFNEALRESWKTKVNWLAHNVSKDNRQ
PI3Kδ, sequence (P27986 whole entry partner): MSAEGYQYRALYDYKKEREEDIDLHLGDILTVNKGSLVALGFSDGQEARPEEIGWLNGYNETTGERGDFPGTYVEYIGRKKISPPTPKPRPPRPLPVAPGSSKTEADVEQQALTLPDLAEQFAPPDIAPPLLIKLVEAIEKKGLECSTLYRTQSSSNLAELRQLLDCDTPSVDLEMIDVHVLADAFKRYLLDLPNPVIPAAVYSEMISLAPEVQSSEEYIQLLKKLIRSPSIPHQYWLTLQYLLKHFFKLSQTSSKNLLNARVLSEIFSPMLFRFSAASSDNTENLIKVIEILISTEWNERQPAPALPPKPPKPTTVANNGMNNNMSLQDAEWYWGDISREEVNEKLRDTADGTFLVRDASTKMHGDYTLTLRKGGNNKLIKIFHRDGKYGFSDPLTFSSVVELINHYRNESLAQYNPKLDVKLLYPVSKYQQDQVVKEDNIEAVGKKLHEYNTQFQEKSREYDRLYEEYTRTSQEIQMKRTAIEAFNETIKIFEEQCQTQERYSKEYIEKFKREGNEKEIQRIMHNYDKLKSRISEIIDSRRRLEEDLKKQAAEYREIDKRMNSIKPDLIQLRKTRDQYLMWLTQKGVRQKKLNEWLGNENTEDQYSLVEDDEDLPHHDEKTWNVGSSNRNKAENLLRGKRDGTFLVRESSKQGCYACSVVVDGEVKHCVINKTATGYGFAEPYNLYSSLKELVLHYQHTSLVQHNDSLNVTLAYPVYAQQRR
Procedure, shortened: (§2)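 After 30 min at 25° C, reactions were quenched with 10 mM EDTA plus 10 nM labeled-PIP3 and 35 nM Europium-GRP-1, and TR-FRET was read (Ex 340, Em 615/665 nm). Enzymes were purified recombinant heterodimers; product PIP3 competes off the labeled tracer. Values given as IC50, nM.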

PI3Kα = PI3Kα (Homo sapiens (Human), UniProt P42336); conditions: bound given in uM
PI3Kα, sequence (P42336 whole entry): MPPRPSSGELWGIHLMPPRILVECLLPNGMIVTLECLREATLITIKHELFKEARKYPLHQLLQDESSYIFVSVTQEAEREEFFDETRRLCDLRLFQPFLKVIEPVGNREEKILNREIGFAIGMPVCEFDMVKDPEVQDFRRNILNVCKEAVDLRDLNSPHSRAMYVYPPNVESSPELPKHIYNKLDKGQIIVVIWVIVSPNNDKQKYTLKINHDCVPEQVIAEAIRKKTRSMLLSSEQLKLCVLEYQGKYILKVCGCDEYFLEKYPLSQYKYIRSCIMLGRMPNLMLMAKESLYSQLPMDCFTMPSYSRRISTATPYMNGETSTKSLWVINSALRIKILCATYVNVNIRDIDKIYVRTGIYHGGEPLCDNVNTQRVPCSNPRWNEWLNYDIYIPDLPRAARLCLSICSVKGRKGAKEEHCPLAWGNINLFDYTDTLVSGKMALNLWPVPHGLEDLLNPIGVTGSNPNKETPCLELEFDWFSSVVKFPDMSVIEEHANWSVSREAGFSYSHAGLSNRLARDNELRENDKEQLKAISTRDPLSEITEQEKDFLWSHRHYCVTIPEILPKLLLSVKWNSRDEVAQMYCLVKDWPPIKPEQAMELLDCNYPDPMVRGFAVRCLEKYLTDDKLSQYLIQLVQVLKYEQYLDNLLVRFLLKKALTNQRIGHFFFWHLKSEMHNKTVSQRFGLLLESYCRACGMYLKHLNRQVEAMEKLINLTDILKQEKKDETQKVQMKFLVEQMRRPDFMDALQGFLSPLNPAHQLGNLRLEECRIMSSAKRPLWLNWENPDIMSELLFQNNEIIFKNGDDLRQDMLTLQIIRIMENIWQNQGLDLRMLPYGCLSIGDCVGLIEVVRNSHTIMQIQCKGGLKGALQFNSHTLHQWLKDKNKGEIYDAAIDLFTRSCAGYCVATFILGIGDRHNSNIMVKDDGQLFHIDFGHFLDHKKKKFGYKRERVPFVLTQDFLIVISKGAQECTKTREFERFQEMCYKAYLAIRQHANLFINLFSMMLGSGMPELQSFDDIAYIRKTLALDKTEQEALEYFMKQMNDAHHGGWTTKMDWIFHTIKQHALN
PI3Kα, sequence (P27986 whole entry partner): as the sequence (P27986 whole entry partner) above
Procedure, shortened: as §2

PI3Kγ, sequence (P48736 whole entry, the tested form may be a part): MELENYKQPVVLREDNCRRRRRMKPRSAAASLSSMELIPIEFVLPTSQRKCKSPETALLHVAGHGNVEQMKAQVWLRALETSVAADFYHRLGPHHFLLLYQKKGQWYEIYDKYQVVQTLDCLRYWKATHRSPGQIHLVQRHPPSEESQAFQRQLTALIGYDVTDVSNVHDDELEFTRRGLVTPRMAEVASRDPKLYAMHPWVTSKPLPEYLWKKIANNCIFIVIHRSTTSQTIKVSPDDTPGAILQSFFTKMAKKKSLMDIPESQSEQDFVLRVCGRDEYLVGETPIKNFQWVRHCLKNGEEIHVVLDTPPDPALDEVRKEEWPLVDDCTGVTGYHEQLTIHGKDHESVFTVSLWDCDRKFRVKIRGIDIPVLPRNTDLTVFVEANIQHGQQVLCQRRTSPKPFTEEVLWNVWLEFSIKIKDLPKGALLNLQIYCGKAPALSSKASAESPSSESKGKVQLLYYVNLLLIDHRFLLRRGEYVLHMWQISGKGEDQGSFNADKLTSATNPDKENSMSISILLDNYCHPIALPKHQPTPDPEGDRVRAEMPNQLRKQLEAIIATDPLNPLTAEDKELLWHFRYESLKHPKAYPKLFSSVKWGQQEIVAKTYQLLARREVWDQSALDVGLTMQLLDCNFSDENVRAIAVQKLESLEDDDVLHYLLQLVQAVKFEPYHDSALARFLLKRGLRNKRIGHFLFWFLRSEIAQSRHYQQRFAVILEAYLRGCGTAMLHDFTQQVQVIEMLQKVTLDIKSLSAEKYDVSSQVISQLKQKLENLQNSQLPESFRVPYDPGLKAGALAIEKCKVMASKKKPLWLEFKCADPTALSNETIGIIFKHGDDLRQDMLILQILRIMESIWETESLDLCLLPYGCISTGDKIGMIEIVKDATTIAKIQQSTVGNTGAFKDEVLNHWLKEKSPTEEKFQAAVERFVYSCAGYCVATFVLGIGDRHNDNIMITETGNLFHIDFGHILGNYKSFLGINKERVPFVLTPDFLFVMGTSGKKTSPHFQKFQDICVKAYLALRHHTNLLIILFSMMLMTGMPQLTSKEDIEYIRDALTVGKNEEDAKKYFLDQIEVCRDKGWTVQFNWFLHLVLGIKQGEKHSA
PI3Kγ, sequence (Q8WYR1 whole entry partner, the tested form may be a part): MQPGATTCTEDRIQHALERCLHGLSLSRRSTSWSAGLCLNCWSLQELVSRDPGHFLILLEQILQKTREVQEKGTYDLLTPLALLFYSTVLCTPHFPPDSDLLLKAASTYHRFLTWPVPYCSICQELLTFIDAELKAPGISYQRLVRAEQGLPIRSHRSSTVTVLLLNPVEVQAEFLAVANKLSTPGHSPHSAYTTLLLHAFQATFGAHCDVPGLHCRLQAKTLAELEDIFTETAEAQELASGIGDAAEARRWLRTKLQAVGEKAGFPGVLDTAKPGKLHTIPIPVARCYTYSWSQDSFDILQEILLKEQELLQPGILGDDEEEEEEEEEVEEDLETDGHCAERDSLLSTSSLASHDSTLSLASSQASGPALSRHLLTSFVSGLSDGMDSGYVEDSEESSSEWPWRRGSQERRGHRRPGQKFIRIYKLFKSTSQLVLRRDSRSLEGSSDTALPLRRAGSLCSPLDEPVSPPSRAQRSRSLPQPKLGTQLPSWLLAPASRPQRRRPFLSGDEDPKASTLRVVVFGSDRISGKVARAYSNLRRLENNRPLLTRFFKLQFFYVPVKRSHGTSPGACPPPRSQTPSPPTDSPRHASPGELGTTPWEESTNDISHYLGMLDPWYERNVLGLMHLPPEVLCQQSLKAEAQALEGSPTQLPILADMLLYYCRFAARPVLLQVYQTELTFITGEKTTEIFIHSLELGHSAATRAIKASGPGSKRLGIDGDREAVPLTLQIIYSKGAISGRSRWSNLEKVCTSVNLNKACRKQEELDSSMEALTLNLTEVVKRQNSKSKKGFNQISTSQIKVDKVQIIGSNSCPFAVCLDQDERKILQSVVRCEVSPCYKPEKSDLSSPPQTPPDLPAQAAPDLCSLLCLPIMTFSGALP

Row | SMILES | IC50 (PI3Kγ; bound given in uM) [µM] | IC50 (PI3Kβ; bound given in uM) [µM] | IC50 (PI3Kδ) [nM] | IC50 (PI3Kα) [µM] | IC50 (PI3Kγ; bound given in nM) [µM] | IC50 (PI3Kβ; bound given in nM) [µM]
1 | C[C@H](Nc1ncnc(N)c1C#CC(C)(C)O)c1nc2cccc(Cl)c2c(=O)n1-c1ccccc1 [Compound 29a, (S)-2-(1-(6-amino-5-(3-hydroxy-3-methylbut-1-ynyl)pyrimidin-4-ylamino)ethyl)-5-chloro-3-phenylquinazolin-4(3H)-one] | > 1 | > 1 | < 100 | > 1 |  | 
2 | COc1cc(F)cc(C#Cc2c(N)ncnc2NC(C)c2nc3c(F)ccc(F)c3c(=O)n2-c2ccccc2)c1 (stereo not drawn) [Compound 63a, 2-(1-((6-amino-5-((3-fluoro-5-methoxyphenyl)ethynyl)pyrimidin-4-yl)amino)ethyl)-5,8-difluoro-3-phenylquinazolin-4(3H)-one] | > 1 | > 1 | < 100 | > 1 |  | 
3 | C[C@H](Nc1ncnc(N)c1C#Cc1ccc(C(F)(F)F)cn1)c1nc2cccc(Cl)c2c(=O)n1-c1ccccc1 [Compound 132a, (S)-2-(1-((6-amino-5-((5-(trifluoromethyl)pyridin-2-yl)ethynyl)pyrimidin-4-yl)amino)ethyl)-5-chloro-3-phenylquinazolin-4(3H)-one] |  | > 1 | < 100 | > 1 | < 0.1 | 
4 | C[C@H](Nc1ncnc(N)c1C#Cc1cnccn1)c1nc2ccc(F)cc2c(=O)n1-c1cccc(Cl)c1 [Compound 97a, (S)-2-(1-((6-amino-5-(pyrazin-2-ylethynyl)pyrimidin-4-yl)amino)ethyl)-3-(3-chlorophenyl)-6-fluoroquinazolin-4(3H)-one] | > 1 | > 1 | < 100 | > 1 |  | 
5 | C[C@H](Nc1ncnc(N)c1C#Cc1cnccn1)c1nc2cccc(C#N)c2c(=O)n1-c1ccccc1 [Compound 55a, (S)-2-(1-((6-amino-5-(pyrazin-2-ylethynyl)pyrimidin-4-yl)amino)ethyl)-4-oxo-3-phenyl-3,4-dihydroquinazoline-5-carbonitrile] | > 1 | > 1 | < 100 | > 1 |  | 
6 | C[C@H](Nc1ncnc(N)c1C#Cc1cc(C(F)F)ccn1)c1nc2cccc(Cl)c2c(=O)n1-c1ccccc1 [Compound 149a, (S)-2-(1-((6-amino-5-((4-(difluoromethyl)pyridin-2-yl)ethynyl)pyrimidin-4-yl)amino)ethyl)-5-chloro-3-phenylquinazolin-4(3H)-one] |  |  | < 100 | > 1 | < 0.1 | < 0.1
7 | Cc1cccc2nc([C@H](C)Nc3ncnc(N)c3C#Cc3cnccn3)n(-c3cncc(F)c3)c(=O)c12 [Compound 120a, (S)-2-(1-((6-amino-5-(pyrazin-2-ylethynyl)pyrimidin-4-yl)amino)ethyl)-3-(5-fluoropyridin-3-yl)-5-methylquinazolin-4(3H)-one] | > 1 | > 1 | < 100 | > 1 |  | 
8 | C[C@H](Nc1ncnc(N)c1C#Cc1ncccn1)c1nc2cccc(Cl)c2c(=O)n1-c1cccnc1 [Compound 117a, (S)-2-(1-((6-amino-5-(pyrimidin-2-ylethynyl)pyrimidin-4-yl)amino)ethyl)-5-chloro-3-(pyridin-3-yl)quinazolin-4(3H)-one] | > 1 | > 1 | < 100 | > 1 |  | 
9 | C[C@H](Nc1ncnc(N)c1C#Cc1ncc(F)cc1F)c1nc2cccc(Cl)c2c(=O)n1-c1ccccc1 [Compound 82a, (S)-2-(1-((6-amino-5-((3,5-difluoropyridin-2-yl)ethynyl)pyrimidin-4-yl)amino)ethyl)-5-chloro-3-phenylquinazolin-4(3H)-one] | > 1 | > 1 | < 100 | > 1 |  | 
10 | C[C@H](Nc1ncnc(N)c1C#Cc1cnccn1)c1nc2ccc(F)cc2c(=O)n1-c1cccc(C#N)c1 [Compound 95a, (S)-3-(2-(1-((6-amino-5-(pyrazin-2-ylethynyl)pyrimidin-4-yl)amino)ethyl)-6-fluoro-4-oxoquinazolin-3(4H)-yl)benzonitrile] | > 1 | > 1 | < 100 | > 1 |  | 
11 | Cc1ccc(F)c2nc([C@H](C)Nc3ncnc(N)c3C#Cc3ccc(F)cn3)n(-c3cccc(C#N)c3)c(=O)c12 [Compound 72a, (S)-3-(2-(1-((6-amino-5-((5-fluoropyridin-2-yl)ethynyl)pyrimidin-4-yl)amino)ethyl)-8-fluoro-5-methyl-4-oxoquinazolin-3(4H)-yl)benzonitrile] | > 1 | > 1 | < 100 | > 1 |  | 
12 | COc1cccc(-n2c([C@H](C)Nc3ncnc(N)c3C#Cc3ncccc3F)nc3cccc(Cl)c3c2=O)c1C [81-2a] | > 1 | > 1 | < 100 | > 1 |  | 
13 | C[C@H](Nc1ncnc(N)c1C#Cc1ccc(F)cn1)c1nc2cccc(F)c2c(=O)n1-c1cc(F)cc(F)c1 [Compound 7a, (S)-2-(1-(6-amino-5-((5-fluoropyridin-2-yl)ethynyl)pyrimidin-4-ylamino)ethyl)-3-(3,5-difluorophenyl)-5-fluoroquinazolin-4(3H)-one] | > 1 | > 1 | < 100 | > 1 |  | 
14 | Cc1cccc2c(=O)n(-c3ccccc3)c([C@H](C)Nc3ncnc(N)c3C#Cc3ccc(F)cn3)nc12 [Compound 56a, (S)-2-(1-((6-amino-5-((5-fluoropyridin-2-yl)ethynyl)pyrimidin-4-yl)amino)ethyl)-8-methyl-3-phenylquinazolin-4(3H)-one] | > 1 | > 1 | < 100 | > 1 |  | 
15 | Cc1cccc2nc([C@H](C)Nc3ncnc(N)c3C#Cc3ncccn3)n(-c3cc(F)cc(F)c3)c(=O)c12 [Compound 105a, (S)-2-(1-((6-amino-5-(pyrimidin-2-ylethynyl)pyrimidin-4-yl)amino)ethyl)-3-(3,5-difluorophenyl)-5-methylquinazolin-4(3H)-one] | > 1 | > 1 | < 100 | > 1 |  | 
16 | C[C@H](Nc1ncnc(N)c1C#Cc1ccc(F)cn1)c1nc2c(Cl)cccc2c(=O)n1-c1ccccc1 [Compound 5a, (S)-2-(1-(6-amino-5-((5-fluoropyridin-2-yl)ethynyl)pyrimidin-4-ylamino)ethyl)-8-chloro-3-phenylquinazolin-4(3H)-one] | > 1 | > 1 | < 100 | > 1 |  | 
17 | COC[C@@H](Nc1ncnc(N)c1C#Cc1ccc(F)cn1)c1nc2cccc(Cl)c2c(=O)n1-c1cc(F)cc(F)c1 [146b] | > 1 | > 1 | < 100 | > 1 |  | 
18 | C[C@H](Nc1ncnc(N)c1C#Cc1ccc(F)cn1)c1nc2cccc(Cl)c2c(=O)n1N1CCNCC1 [Compound 127a, (S)-2-(1-((6-amino-5-((5-fluoropyridin-2-yl)ethynyl)pyrimidin-4-yl)amino)ethyl)-5-chloro-3-(piperazin-1-yl)quinazolin-4(3H)-one] | > 1 |  | < 100 | > 1 |  | < 0.1
19 | CC(C)CS(=O)(=O)NCc1cccc(-n2c([C@H](C)Nc3ncnc(N)c3C#Cc3ccc(F)cn3)nc3cccc(Cl)c3c2=O)c1 [Compound 131a, (S)—N-(3-(2-(1-((6-amino-5-((5-fluoropyridin-2-yl)ethynyl)pyrimidin-4-yl)amino)ethyl)-5-chloro-4-oxoquinazolin-3(4H)-yl)benzyl)-2-methylpropane-1-sulfonamide] | > 1 | > 1 | < 100 | > 1 |  | 
20 | C[C@H](Nc1ncnc(N)c1C#Cc1ccc(F)cn1)c1nc2cccc(C(F)F)c2c(=O)n1-c1cccc(C#N)c1 [Compound 70a, (S)-3-(2-(1-((6-amino-5-((5-fluoropyridin-2-yl)ethynyl)pyrimidin-4-yl)amino)ethyl)-5-(difluoromethyl)-4-oxoquinazolin-3(4H)-yl)benzonitrile] | > 1 | > 1 | < 100 | > 1 |  | 
21 | C[C@H](Nc1ncnc(N)c1C#CC(C)(C)O)c1nc2cccc(Cl)c2c(=O)n1-c1cc(F)cc(F)c1 [Compound 28a, (S)-2-(1-(6-amino-5-(3-hydroxy-3-methylbut-1-ynyl)pyrimidin-4-ylamino)ethyl)-5-chloro-3-(3,5-difluorophenyl)quinazolin-4(3H)-one] | > 1 | > 1 | < 100 | > 1 |  | 
22 | C[C@H](Nc1ncnc(N)c1C#CC1CC1)c1nc2cccc(Cl)c2c(=O)n1-c1cc(F)cc(F)c1 [Compound 23a, (S)-2-(1-(6-amino-5-(cyclopropylethynyl)pyrimidin-4-ylamino)ethyl)-5-chloro-3-(3,5-difluorophenyl)quinazolin-4(3H)-one] | > 1 | > 1 | < 100 | > 1 |  | 
23 | COc1cc(F)cc(C#Cc2c(N)ncnc2N[C@@H](C)c2nc3cccc(F)c3c(=O)n2-c2ccccc2)c1 [Compound 65a, (S)-2-(1-((6-amino-5-((3-fluoro-5-methoxyphenyl)ethynyl)pyrimidin-4-yl)amino)ethyl)-5-fluoro-3-phenylquinazolin-4(3H)-one] | > 1 | > 1 | < 100 | > 1 |  | 
24 | C[C@H](Nc1ncnc(N)c1C#Cc1cnccn1)c1nc2cccc(C(F)F)c2c(=O)n1-c1cccc(C#N)c1 [Compound 71a, (S)-3-(2-(1-((6-amino-5-(pyrazin-2-ylethynyl)pyrimidin-4-yl)amino)ethyl)-5-(difluoromethyl)-4-oxoquinazolin-3(4H)-yl)benzonitrile] | > 1 | > 1 | < 100 | > 1 |  | 
